Like-named read-outs stand apart in the source and are kept apart here.
Experiments:
[1] = test system: PPARG (murine PPARg2 or full-length human PPARg co-transfected into COS-1 cells); assay: Cell-based transactivation assay (3x PPRE-luciferase reporter, COS-1 cells); conditions: PPRE::Luc reporter
Procedure: PPRE is a DNA that contains a binding site for PPARG; thus PPRE is a PPAR response element, used herein as a promoter reporter. The binding site is a DR1 response element with the sequence [NT] repeated 3 times in tandem and then fused to a construct for luciferase. Thus, PPRE is the basis of the cell based transactivation assay described below. The plasmid DNA is co-transfected along with a plasmid for PPARG into COS-1 cells. After an overnight incubation, cells are treated with DMSO or compounds. […] Transfected cells were plated in white Perkin Elmer 384-well plates and incubated 4 hours. […] After 18 hour incubation, treated cells were developed with Brite Lite Plus (Perkin Elmer) and read in 384-well Luminescence Perkin Elmer EnVision Multilabel plate reader. Graphs were plotted in triplicate in GraphPad Prism Software as fold change of treated cells over DMSO control cells.

GST-PPARG-LBD = biological target: T1, GST-PPARG-LBD (Homo sapiens, UniProt P37231); assay: Lanthascreen PPARG competitive binding assay (Invitrogen)
T1 construct: A mixture of 5 nM GST-PPARG-LBD; purchased Invitrogen
T1 sequence (P37231 238-503 limits assumed): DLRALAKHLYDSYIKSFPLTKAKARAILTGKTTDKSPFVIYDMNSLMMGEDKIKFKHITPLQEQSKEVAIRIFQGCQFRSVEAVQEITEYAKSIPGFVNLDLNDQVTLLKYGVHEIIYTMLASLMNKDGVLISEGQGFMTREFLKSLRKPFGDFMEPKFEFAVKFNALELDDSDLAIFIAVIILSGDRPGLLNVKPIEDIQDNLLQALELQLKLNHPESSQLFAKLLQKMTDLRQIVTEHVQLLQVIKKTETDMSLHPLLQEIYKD
Procedure: The assay was performed according to manufacturer protocol. A mixture of 5 nM GST-PPARG-LBD, 5 nM Tb-GST-antibody, 5 nM Fluormone Pan-PPAR. Green, and serial dilutions of the experimental compound, beginning at 10 μM downwards, was added to wells of black 384-well low-volume plates (Greiner) to a total volume of 18 μL. All dilutions were made in TR-FRET assay buffer C. DMSO at 2% final concentration was used as a no-ligand control. Experiment was performed in triplicate, and incubated for 2 hours in the dark prior to assay read in Perkin Elmer ViewLux ultra HTS microplate reader. FRET signal was measured by excitation at […] and emission at 520 nm for fluorcscein and 490 nm for terbium. Fold change over DMSO was calculated using GraphPad Prism Software (La Jolla, Calif.) by calculating 520 nm/490 nm ratio. Graphs were plotted as fold change of FRET signal for compound treatment over DMSO-only control.

[2] = Table 3, Lantha 1, read-out: IC50 (nM) Lantha 1
[3] = Table 3, Lantha 2, read-out: IC50 (nM) Lantha 2

| Compound | IC50 (GST-PPARG-LBD; [2]) [nM] | IC50 (GST-PPARG-LBD; [3]) [nM] | transactivation of the reporter relative to rosiglitazone response [1] | activation of the PPRE reporter [1] |
| --- | --- | --- | --- | --- |
| COc1ccc(C(=O)n2c(C)c(Cc3cccc(O[C@@H](C)C(=O)O)c3)c3cc(OC(F)(F)F)ccc32)cc1 [MRL24] |  |  | about 25 % of rosiglitazone response |  |
| Cc1nn(Cc2ccc(-c3ccccc3C(=O)O)cc2)c2ccc(C(=O)NC3CCCC3)cc12 [compound 21] | 11.5 | 870 |  |  |
| COCCNC(=O)c1ccc2c(c1)c(C)nn2Cc1ccc(-c2ccccc2C(=O)O)cc1 [compound 22] | > 100 | 824 |  |  |
| Cc1nn(Cc2ccc(-c3ccccc3C(=O)O)cc2)c2ccc(C(=O)NC3CCCCC3)cc12 [compound 23] | 560 | 562 |  |  |
| Cc1nn(Cc2ccc(-c3ccccc3C(=O)O)cc2)c2ccc(C(=O)NC3CCCCCC3)cc12 [compound 24] | 204 | 176 |  |  |
| Cc1nn(Cc2ccc(-c3ccccc3C(=O)O)cc2)c2ccc(C(=O)NC3CCC(C)CC3)cc12 (centres unmarked) [compound 25] | 255 | 82.8 |  |  |
| Cc1nn(Cc2ccc(-c3ccccc3C(=O)O)cc2)c2ccc(C(=O)N[C@@H](C)c3cccc(C(C)C)c3)cc12 [compound 26] | 23.4 | 94.8 |  |  |
| Cc1nn(Cc2ccc(-c3ccccc3C(=O)O)cc2)c2ccc(C(=O)N[C@@H](C)C3CCCCC3)cc12 [compound 31] |  | 41.7 |  |  |
| COC[C@H](C)NC(=O)c1ccc2c(c1)c(C)nn2Cc1ccc(-c2ccccc2C(=O)O)cc1 [compound 32] |  | 367 |  |  |
| Cc1nn(Cc2ccc(-c3ccccc3C(=O)O)cc2)c2ccc(C(=O)N[C@H]3COc4ccccc4C3)cc12 [compound 33] |  | 235 |  |  |
| Cc1nn(Cc2ccc(-c3ccccc3C(=O)O)cc2)c2ccc(C(=O)N[C@@H]3COc4ccccc4C3)cc12 [compound 34] |  | 147 |  |  |
| CCCCNC(=O)c1ccc2c(c1)c(C)nn2Cc1ccc(-c2ccccc2C(=O)O)cc1 [compound 35] | 76.3 | 84.1 |  |  |
| CCOCCNC(=O)c1ccc2c(c1)c(C)nn2Cc1ccc(-c2ccccc2C(=O)O)cc1 [compound 36] | 4420 | 344 |  |  |
| COCCCNC(=O)c1ccc2c(c1)c(C)nn2Cc1ccc(-c2ccccc2C(=O)O)cc1 [compound 37] | 1820 | 1740 |  |  |
| Cc1nn(Cc2ccc(-c3ccccc3C(=O)O)cc2)c2ccc(C(=O)NCC3CCC(C)CC3)cc12 (centres unmarked) [compound 38] | 118 | 82.8 |  |  |
| COCCNC(=O)c1ccc2c(c1)c(C(C)C)nn2Cc1ccc(-c2ccccc2C(=O)O)cc1 [compound 46] | 359 | 432 |  |  |
| CC(C)c1nn(Cc2ccc(-c3ccccc3C(=O)O)cc2)c2ccc(C(=O)NC3CCCC3)cc12 [compound 48] | 133 | 259 |  |  |
| C=C(C)c1nn(Cc2ccc(-c3ccccc3C(=O)O)cc2)c2ccc(C(=O)NCCOC)cc12 [compound 51] | 120 | 166 |  |  |
| Cc1nn(Cc2ccccc2)c2ccc(C(=O)N[C@@H](C)c3ccc(Br)cc3)cc12 [compound 52] | 713 | 932 |  |  |
| Cc1nn(Cc2ccc(Cl)cc2)c2ccc(C(=O)N[C@@H](C)c3ccc(Br)cc3)cc12 [compound 53] |  | 1050 |  |  |
| Cc1nn(Cc2ccc(C3(C(=O)O)CC3)cc2)c2ccc(C(=O)N[C@@H](C)c3ccc(Br)cc3)cc12 [compound 56] |  | 144 |  |  |
| Cc1nn(Cc2ccccn2)c2ccc(C(=O)N[C@@H](C)c3ccc(Br)cc3)cc12 [compound 57] |  | 877 |  |  |
| COCCNC(=O)c1ccc2c(c1)c(C)nn2Cc1cccc(C#N)c1 [compound 58] |  | 4770 |  |  |
| CN(CCOc1ccc(CC2SC(=O)NC2=O)cc1)c1ccccn1 (centres unmarked) [rosiglitazone] |  |  |  | about 5 fold |

Continued by falling IC50 (GST-PPARG-LBD; [3]), values first:

| IC50 (GST-PPARG-LBD; [2]) [nM] | IC50 (GST-PPARG-LBD; [3]) [nM] | Compound | transactivation of the reporter relative to rosiglitazone response [1] | activation of the PPRE reporter [1] |
| --- | --- | --- | --- | --- |
| 40.8 | 37.7 | Cc1nn(Cc2ccc(-c3ccccc3C#N)cc2)c2ccc(C(=O)N[C@@H](C)c3ccc(Br)cc3)cc12 [compound 40] |  |  |
|  | 32.2 | Cc1nn(Cc2ccccc2C#N)c2ccc(C(=O)N[C@@H](C)c3ccc(Br)cc3)cc12 [compound 55] |  |  |
|  | 31.8 | Cc1ccc([C@H](C)NC(=O)c2ccc3c(c2)c(C)nn3Cc2ccc(-c3ccccc3C(=O)O)cc2)cc1 [compound 27] |  |  |
|  | 21.6 | Cc1nn(Cc2cccc(O[C@H](C)C(=O)O)c2)c2ccc(C(=O)N[C@@H](C)c3ccc(Br)cc3)cc12 [compound 54] |  |  |
|  | 21.6 | Cc1nn(Cc2ccc(-c3ccccc3C(=O)O)cc2)c2ccc(C(=O)N[C@H](C)C3CCCCC3)cc12 [compound 30] |  |  |
|  | 18.8 | Cc1nn(Cc2ccc(-c3ccccc3C(=O)O)cc2)c2ccc(C(=O)N[C@@H](C)c3cccc(C4CC4)c3)cc12 [compound 29] |  |  |
|  | 16.1 | Cc1nn(Cc2ccc(-c3ccccc3C(N)=O)cc2)c2ccc(C(=O)N[C@@H](C)c3ccc(Br)cc3)cc12 [compound 39] |  |  |
| 19.9 | 15.2 | CC(C)c1nn(Cc2ccc(-c3ccccc3C(=O)O)cc2)c2ccc(C(=O)N[C@@H](C)c3ccc(Br)cc3)cc12 [compound 50] |  |  |
|  | 13 | CC[C@H](NC(=O)c1ccc2c(c1)c(C)nn2Cc1ccc(-c2ccccc2C(=O)O)cc1)c1ccccc1 [compound 43] |  |  |
| 9.83 | 2.8 | Cc1nn(Cc2ccc(-c3ccccc3C(=O)O)cc2)c2ccc(C(=O)N[C@@H](C)c3ccc(Br)cc3)cc12 [compound 42] |  |  |
|  | 2.6 | Cc1nn(Cc2ccc(-c3ccccc3-c3nnn[nH]3)cc2)c2ccc(C(=O)N[C@@H](C)c3ccc(Br)cc3)cc12 [compound 41] |  |  |
| 1.85 | 0.681 | CCC(NC(=O)c1ccc2c(c1)c(C(C)C)nn2Cc1ccc(-c2ccccc2C(=O)O)cc1)c1ccccc1 (centres unmarked) [compound 47] |  |  |
|  | 0.579 | CCC(NC(=O)c1ccc2c(c1)c(C)nn2Cc1ccc(-c2ccccc2C(=O)O)cc1)c1ccccc1 (centres unmarked) [compound 28] |  |  |
|  | 0.119 | CC[C@H](NC(=O)c1ccc2c(c1)c(C(C)C)nn2Cc1ccc(-c2ccccc2C(=O)O)cc1)c1ccc(Br)cc1 [compound 49] |  |  |

From US20140288090A1, “N-ARYLYLMETHYLINDAZOLE MODULATORS OF PPARG” (priority 2011, published 2014)
